The values below are quoted from earlier work in paper PMC3873039 (Anti-Cancer Agents in Medicinal Chemistry, 2013).

SMILES strings stand for the structures.

The data set deals with lung cancer cell lines (A549 and CH27). Conditions: 24 h; cited from earlier work.

For `C(=C\c1ccccc1)/c1ccccc1` [Trans-Stilbene, Trans-stilbene], the half-inhibitory concentration (IC50) is 25 to 98 µM.
